# Patent US20220298146A1, “HETEROCYCLIC DERIVATIVE AND USE THEREOF” (Transthera Sciences (Nanjing), Inc., priority 2019, published 2022)
# Like-named read-outs stand apart in the source and are kept apart here.
# Assays:
# [1] = Beagle PK evaluation experiment; assay type: in vivo; conditions: dog, plasma; for AUC(0-t) / clearance / Vd / half-life / Tmax: dose 1 mg/kg; for clearance: n=3, read-out: Cl_obs iv (clearance rate) (converted); for Vd: n=3, read-out: Vz_obs iv (apparent volume of distribution); for bioavailability: iv/po dose 1/1 mg/kg, n=3, read-out: F % (absolute bioavailability); for Tmax: n=3, median, read-out: Tmax po (time to maximum plasma concentration)
# Method: Test samples: the compounds of the present invention, prepared according to exemplary methods.
# Administration and Sample Collection:
# Experimental compounds 11, 12 and 35 were each dissolved in a mixture of 5% DMSO+20% (30% Solutol)+75% saline to prepare solutions. The compound solutions were administrated via intragastric gavage to beagles at a dose of 1.0 mg/kg, respectively. The blood was collected at time points of 0 min, 15 min, 30 min, 1 h, 2 h, 4 h, 6 h, 8 h, 10 h and 24 h.
# (§1) Experimental compounds 11, 12 and 35 were each dissolved in a mixture of 5% DMSO+20% (30% Solutol)+75% saline to prepare solutions. The compound solutions were intravenously injected into beagles at a dose of 1.0 mg/kg, respectively. The blood was collected at time points of 0 min, 5 min, 15 min, 30 min, 1 h, 2 h, 4 h, 6 h, 8 h, 10 h and 24 h. […]
# as §1, with “compound 17” for “compounds 11, 12”, “compound 37” for “35”, “PEG400+75% (20% Captisol in Water)” for “(30% Solutol)+75% saline”
# Experimental compound 18 was dissolved in a mixture of 5% DMA+30% PEG400+65% (20% Captisol in Saline) to prepare a solution. The compound solution was intravenously injected into a beagle at a dose of 1.0 mg/kg. The blood was collected at time points of 0 min, 5 min, 15 min, 30 min, 1 h, 2 h, 4 h, 6 h, 8 h, 10 h and 24 h.
# About 1 mL of blood was collected via the upper extremity, and the collected blood was placed in an anticoagulation tube containing EDTA-K2. The blood samples were centrifuged at 1800 g for 5 min at 4° C. to give plasma samples which were prepared within 30 min after blood collection. The plasma samples were stored in a refrigerator at −80° C. before test.
# The samples to be tested were taken out from the refrigerator at −80° C., and vortexed for 5 min after naturally thawed at room temperature. 20 μL of plasma samples were each pipetted into a 1.5 mL centrifuge tube, and 200 μL of internal standard working solution (a solution of tolbutamide in methanol) at 100 ng/mL was added. The resulting mixture was mixed well, vortexed for 5 min, and then centrifuged at 12,000 rpm for 5 min. 50 μL of the supernatant was pipetted into a 96-well plate with 150 μL of water per well, and the plate was vortexed for 5 min and mixed well before LC-MS/MS analysis.
# The concentrations of test samples were calculated by Analyst 1.6.3 from AB Sciex. Parameters such as mean, standard deviation and coefficient of variation (excluding those output directly by Analyst 1.6.3) were calculated by Microsoft Excel. PK parameters were calculated by Pharsight Phoenix 6.1 software NCA (Tmax was in median).
# H1299 cell pMer = target: T1, H1299 cell pMer (Homo sapiens, UniProt Q12866); assay: Inhibitory activity on cell pMer (H1299 cells, Human MerMab stimulation, Western Blot); assay type: cell-based; conditions: Human MerMab 200 ng/mL, tested at 0.37, 1.1, 3.3 and 10 nM
# T1 construct: endogenous in cells; host or cells: H1299
# T1 sequence (Q12866 21-999): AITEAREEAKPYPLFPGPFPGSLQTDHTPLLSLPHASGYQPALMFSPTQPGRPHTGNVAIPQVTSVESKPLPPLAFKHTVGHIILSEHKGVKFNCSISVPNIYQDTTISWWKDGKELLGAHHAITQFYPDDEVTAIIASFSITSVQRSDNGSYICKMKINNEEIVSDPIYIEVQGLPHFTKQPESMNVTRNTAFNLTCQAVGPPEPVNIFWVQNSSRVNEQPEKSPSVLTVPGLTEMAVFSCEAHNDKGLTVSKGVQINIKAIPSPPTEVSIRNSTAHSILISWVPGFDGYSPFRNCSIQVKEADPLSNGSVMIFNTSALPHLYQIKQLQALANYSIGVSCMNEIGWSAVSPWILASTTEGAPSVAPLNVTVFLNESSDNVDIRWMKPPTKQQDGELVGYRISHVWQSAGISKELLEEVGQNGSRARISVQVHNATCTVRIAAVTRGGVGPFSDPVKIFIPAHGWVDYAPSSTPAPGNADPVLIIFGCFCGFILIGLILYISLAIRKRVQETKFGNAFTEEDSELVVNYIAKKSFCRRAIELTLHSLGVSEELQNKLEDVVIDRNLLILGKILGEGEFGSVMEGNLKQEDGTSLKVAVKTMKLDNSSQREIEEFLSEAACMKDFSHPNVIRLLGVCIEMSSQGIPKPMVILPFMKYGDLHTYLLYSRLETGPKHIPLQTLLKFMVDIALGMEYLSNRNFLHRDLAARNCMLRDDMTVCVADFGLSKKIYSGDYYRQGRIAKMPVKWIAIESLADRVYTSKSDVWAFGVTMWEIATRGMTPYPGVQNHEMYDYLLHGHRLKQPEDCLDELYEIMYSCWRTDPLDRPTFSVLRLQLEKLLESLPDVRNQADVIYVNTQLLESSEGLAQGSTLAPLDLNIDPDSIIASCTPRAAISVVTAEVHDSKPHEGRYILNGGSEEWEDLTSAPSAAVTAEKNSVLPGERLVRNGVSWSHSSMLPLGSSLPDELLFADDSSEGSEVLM
# Method: H1299 is a non-small cell lung cancer cell.
# Test samples: the compounds of the present invention, having structures shown above.
# Test instruments: protein electrophoresis apparatus (made by Bio Rad), membrane transfer apparatus (made by Bio Rad), exposure apparatus (made by Tanon), and CO2 cell incubator (made by Thermo).
# H1299 cells were inoculated into a 6-well plate (containing 10% FBS 1640 medium, 5×10^5 cells per well) and adherently cultivated at 37° C. and 5% CO2 for 18 h. The cells were starved overnight, and compounds with different concentrations were added. The compounds had final concentrations of 0.37 nM, 1.1 nM, 3.3 nM and 10 nM, with DMSO having a final concentration of 1‰. There was a medium containing 10‰ DMSO in the negative control well. The cells were incubated at 37° C. and 5% CO2 for 60 min, and then Human MerMab (R&D, final concentration: 200 ng/mL) was added to each well. The cells were further incubated for 60 min, and then the total protein of the cells was extracted for Western Blot experiment. Gray analysis was performed on the results with Image J software, and IC50 values were calculated with GraphPad 5.0 software. The inhibitory activities of the compounds on cell pMer were detected.
# [2] = iv, n=3, read-out: AUClast iv (area under concentration-time curve for 0-24 h)
# [3] = iv, n=3, read-out: tz1/2 iv (terminal half-life) (converted)
# [4] = po (gavage), n=3, read-out: AUClast po (area under concentration-time curve for 0-24 h)
# [5] = po (gavage), n=3, read-out: tz1/2 po (terminal half-life) (converted)
SMILES,"AUC(0-t) [1, 2] [ng·h/mL]",clearance ([1]; iv) [mL/min/kg],Vd ([1]; iv) [L/kg],"half-life [1, 3] [h]",bioavailability [1] [%],Tmax ([1]; po (gavage)) [h],"AUC(0-t) [1, 4] [ng·h/mL]","half-life [1, 5] [h]",IC50 (H1299 cell pMer) [nM]
"Nc1nccc(Oc2ccc(NC(=O)c3nn(C4CC4)cc(-c4ccc(F)cc4)c3=O)nc2)c1Cl [Compound 17, N-(5-((2-amino-3-chloropyridin-4-yl)oxy)pyridin-2-yl)-1-cyclopropyl-5-(4-fluorophenyl)-4-oxo-1,4-dihydropyridazine-3-carboxamide]",3360,5,3.16,7.46,109,1,3670,13.6,< 1.1
"C=CCn1cc(-c2ccc(F)cc2)c(=O)c(C(=O)Nc2ccc(Oc3ccnc(N)c3Cl)nc2)n1 [Compound 39, 1-allyl-N-(6-((2-amino-3-chloropyridin-4-yl)oxy)pyridin-3-yl)-5-(4-fluorophenyl)-4-oxo-1,4-dihydropyridazine-3-carboxamide]",,,,,,,,,3.3 to 10
"CC(C)n1cc(-c2ccc(F)cc2)c(=O)c(C(=O)Nc2ccc(Oc3ccnc(N)c3Cl)nc2)n1 [Compound 13, N-(6-((2-amino-3-chloropyridin-4-yl)oxy)pyridin-3-yl)-5-(4-fluorophenyl)-1-isopropyl-4-oxo-1,4-dihydropyridazine-3-carboxamide]",,,,,,,,,3.3 to 10
"C=CCn1cc(-c2ccc(F)cc2)c(=O)c(C(=O)Nc2ccc(Oc3ccnc(N)c3Cl)cn2)n1 [Compound 35, 1-allyl-N-(5-((2-amino-3-chloropyridin-4-yl)oxy)pyridin-2-yl)-5-(4-fluorophenyl)-4-oxo-1,4-dihydropyridazine-3-carboxamide]",4120,3.83,3.16,9.32,50.7,1,2200,4.01,0.37
"CC(C)n1cc(-c2ccc(F)cc2)c(=O)c(C(=O)Nc2ccc(Oc3ccnc(N)c3Cl)cn2)n1 [Compound 11, N-(5-((2-amino-3-chloropyridin-4-yl)oxy)pyridin-2-yl)-5-(4-fluorophenyl)-1-isopropyl-4-oxo-1,4-dihydropyridazine-3-carboxamide]",3320,4.33,5.36,15,37.3,1,1360,5.97,1.1
"Nc1nccc(Oc2cnc(NC(=O)c3nn(C4CC4)cc(-c4ccc(F)cc4)c3=O)nc2)c1Cl [Compound 18, N-(5-((2-amino-3-chloropyridin-4-yl)oxy)pyrimidin-2-yl)-5-(4-fluorophenyl)-1-cyclopropyl-4-oxo-1,4-dihydropyridazine-3-carboxamide]",3730,4.83,0.65,1.54,29.7,1,1090,2,1.1
"CC(C)n1cc(-c2ccc(F)cc2)c(=O)c(C(=O)Nc2ncc(Oc3ccnc(N)c3Cl)cn2)n1 [Compound 12, N-(5-((2-amino-3-chloropyridin-4-yl)oxy)pyrimidin-2-yl)-5-(4-fluorophenyl)-1-isopropyl-4-oxo-1,4-dihydropyridazine-3-carboxamide]",1530,10.8,1.04,1.1,78,0.5,1190,1.24,1.1
"Cn1cc(-c2ccc(F)cc2)c(=O)c(C(=O)Nc2ccc(Oc3ccnc(N)c3Cl)cn2)n1 [Compound 33, N-(5-((2-amino-3-chloropyridin-4-yl)oxy)pyridin-2-yl)-5-(4-fluorophenyl)-1-methyl-4-oxo-1,4-dihydropyridazine-3-carboxamide]",,,,,,,,,3.3
C=CCn1cc(-c2ccc(F)cc2)c(=O)c(C(=O)Nc2ncc(Oc3ccnc(N)c3Cl)cn2)n1 [Compound 37],2600,6.83,1.07,1.79,70.6,0.5,1830,1.88,3.3
"Nc1nccc(Oc2ccc(NC(=O)c3nn(C4CC4)cc(-c4ccc(F)cc4)c3=O)cn2)c1Cl [Compound 19, N-(6-((2-amino-3-chloropyridin-4-yl)oxy)pyridin-3-yl)-1-cyclopropyl-5-(4-fluorophenyl)-4-oxo-1,4-dihydropyridazine-3-carboxamide]",,,,,,,,,10
